Conditions: Gas, Vibrating wire viscometry

[He] [helium]
Conditions | viscosity [mPa·s]
296.26 K, 100.3 kPa | 0.01964
296.26 K, 332.1 kPa | 0.01983
296.26 K, 500.3 kPa | 0.01979
296.26 K, 716 kPa | 0.01982
322.56 K, 110.1 kPa | 0.02084
322.56 K, 306.5 kPa | 0.02096
322.56 K, 521.2 kPa | 0.02101
322.56 K, 723 kPa | 0.021
373.12 K, 111.6 kPa | 0.02307
373.12 K, 307.1 kPa | 0.02314
373.12 K, 504.2 kPa | 0.02318
373.12 K, 698.5 kPa | 0.02322
472.08 K, 111.5 kPa | 0.02712
472.08 K, 313.7 kPa | 0.02727
472.08 K, 504.9 kPa | 0.02725
472.08 K, 717.7 kPa | 0.02732
572.96 K, 111.1 kPa | 0.03107
572.96 K, 309.7 kPa | 0.03119
572.96 K, 514.3 kPa | 0.03119
572.96 K, 721.7 kPa | 0.03123

N#N [nitrogen]
Conditions | viscosity [mPa·s]
296.26 K, 99.9 kPa | 0.01766
296.26 K, 312.6 kPa | 0.01773
297.05 K, 500.9 kPa | 0.01783
297.05 K, 700.9 kPa | 0.01789
322.56 K, 109.8 kPa | 0.01884
322.56 K, 307.3 kPa | 0.01892
322.56 K, 500.7 kPa | 0.01899
322.56 K, 701.2 kPa | 0.01904
373.12 K, 111.2 kPa | 0.02104
373.12 K, 300.6 kPa | 0.02109
373.12 K, 503.2 kPa | 0.02119
373.12 K, 694.5 kPa | 0.02121
472.1 K, 110.2 kPa | 0.02498
472.1 K, 309.7 kPa | 0.025
472.1 K, 505.8 kPa | 0.02509
472.1 K, 703.4 kPa | 0.02513
572.98 K, 111.7 kPa | 0.02864
572.98 K, 316.1 kPa | 0.02867
572.98 K, 502 kPa | 0.02871
572.98 K, 703.4 kPa | 0.02868

[HH] [hydrogen]
Conditions | viscosity [mPa·s]
296.26 K, 102.8 kPa | 0.0089
296.26 K, 305.3 kPa | 0.00897
296.26 K, 501 kPa | 0.009
296.26 K, 700.6 kPa | 0.00902
322.56 K, 111 kPa | 0.00941
322.56 K, 302.4 kPa | 0.00946
322.56 K, 502 kPa | 0.00949
322.56 K, 698 kPa | 0.00951
373.12 K, 111.6 kPa | 0.01041
373.12 K, 301.2 kPa | 0.01047
373.12 K, 503.1 kPa | 0.01048
373.12 K, 701.4 kPa | 0.0105
472.13 K, 111.4 kPa | 0.01209
472.13 K, 298.9 kPa | 0.01214
472.13 K, 500.1 kPa | 0.01215
472.13 K, 701.1 kPa | 0.01216
573.48 K, 98.9 kPa | 0.01416
573.48 K, 298.2 kPa | 0.0142
573.48 K, 503 kPa | 0.01427
573.48 K, 701.6 kPa | 0.01425

Source: the NIST ThermoML archive (doi:10.1016/j.jct.2015.04.028)
